# Legend:
# [1] = target: Mast/stem cell growth factor receptor Kit (Homo sapiens) (UniProt P10721); assay: Inhibition of recombinant human cKit (544 to end residues) at 1 uM using poly(Glu,Tyr) 4:1 as substrate after 40 mins in presence of [gamma-33P]ATP by scintillation counting method
# [2] = target: Mitogen-activated protein kinase 11 (Homo sapiens) (UniProt Q15759); assay: Inhibition of recombinant full-length human SAPK2b at 1 uM using myelin basic protein as substrate after 40 mins in presence of [gamma-33P]ATP by scintillation counting method
# [3] = target: Mitogen-activated protein kinase kinase kinase kinase 2 (Homo sapiens) (UniProt Q12851); assay: Inhibition of recombinant human GCK (1 to 473 residues) at 1 uM using myelin basic protein as substrate after 40 mins in presence of [gamma-33P]ATP by scintillation counting method
# [4] = target: ALK tyrosine kinase receptor (Homo sapiens) (UniProt Q9UM73); assay: Inhibition of recombinant human ALK (1058 to end residues) at 1 uM using KKKSPGEYVNIEFG as substrate after 40 mins in presence of [gamma-33P]ATP by scintillation counting method
# [5] = target: Aurora kinase B (Homo sapiens) (UniProt Q96GD4); assay: Inhibition of recombinant full-length human Aurora-B at 1 uM using AKRRRLSSLRA as substrate after 40 mins in presence of [gamma-33P]ATP by scintillation counting method
# [6] = target: Serine/threonine-protein kinase DCLK3 (Homo sapiens) (UniProt Q9C098); assay: Inhibition of recombinant human DCAMKL3 (345 to end residues) at 1 uM using KKLNRTLSFAEPG as substrate after 40 mins in presence of [gamma-33P]ATP by scintillation counting method
# [7] = target: Serine/threonine-protein kinase MARK2 (Homo sapiens) (UniProt Q7KZI7); assay: Inhibition of recombinant full-length human PAR-1Balpha at 1 uM using KKKVSRSGLYRSPSMPENLNRPR as substrate after 40 mins in presence of [gamma-33P]ATP by scintillation counting method
# [8] = target: DNA-dependent protein kinase catalytic subunit (Homo sapiens) (UniProt P78527); assay: Inhibition of recombinant full-length human DNA-PK at 1 uM using GST-cMyc-p53 as substrate after 40 mins in presence of [gamma-33P]ATP by scintillation counting method
# [9] = target: Serine/threonine-protein kinase SIK3 (Homo sapiens) (UniProt Q9Y2K2); assay: Inhibition of recombinant human SIK3 (1 to 307 residues) at 1 uM using KKKVSRSGLYRSPSMPENLNRPR as substrate after 40 mins in presence of [gamma-33P]ATP by scintillation counting method
# [10] = target: Protein kinase C theta type (Homo sapiens) (UniProt Q04759); assay: Inhibition of recombinant full-length human PKCtheta at 1 uM using histone H1 as substrate after 40 mins in presence of [gamma-33P]ATP by scintillation counting method
# [11] = target: PI3K p110 alpha/p85 alpha (Mus musculus) (UniProt P26450+P42337); assay: Inhibition of recombinant full-length mouse p110a E545K mutant/p85a at 1 uM using phosphatidylinositol 4,5-bisphosphate as substrate after 40 mins in presence of [gamma-33P]ATP by scintillation counting method; assay type: protein-complex assay
# [12] = target: Protein kinase C delta type (Homo sapiens) (UniProt Q05655); assay: Inhibition of recombinant human PKCdelta (2 to end residues) at 1 uM using ERMRPRKRQGSVRRRV as substrate after 40 mins in presence of [gamma-33P]ATP by scintillation counting method
# [13] = target: [Pyruvate dehydrogenase (acetyl-transferring)] kinase isozyme 4, mitochondrial (Homo sapiens) (UniProt Q16654); assay: Inhibition of recombinant full-length human PDHK4 at 1 uM using KKKYHGHSMSDPGVSYRT as substrate after 40 mins in presence of [gamma-33P]ATP by scintillation counting method
# [14] = target: Serine/threonine-protein kinase 17A (Homo sapiens) (UniProt Q9UEE5); assay: Inhibition of recombinant full-length human DRAK1 at 1 uM using KKLNRTLSFAEPG as substrate after 40 mins in presence of [gamma-33P]ATP by scintillation counting method
# [15] = target: Proto-oncogene tyrosine-protein kinase Src (Homo sapiens) (UniProt P12931); assay: Inhibition of recombinant full-length human cSRC at 1 uM using KVEKIGEGTYGVVYK (Cdc2 peptide) as substrate after 40 mins in presence of [gamma-33P]ATP by scintillation counting method
# [16] = target: Serine/threonine-protein kinase tousled-like 1 (Homo sapiens) (UniProt Q9UKI8); assay: Inhibition of recombinant full-length human TLK1 at 1 uM using casein as substrate after 40 mins in presence of [gamma-33P]ATP by scintillation counting method
# [17] = target: Tyrosine-protein kinase Lyn (Homo sapiens) (UniProt P07948); assay: Inhibition of recombinant full-length human Lyn at 1 uM using poly(Glu,Tyr) 4:1 as substrate after 40 mins in presence of [gamma-33P]ATP by scintillation counting method
# [18] = target: Tyrosine-protein kinase Lyn (Mus musculus) (UniProt P25911); assay: Inhibition of recombinant full-length mouse Lyn at 1 uM using poly(Glu,Tyr) 4:1 as substrate after 40 mins in presence of [gamma-33P]ATP by scintillation counting method
# [19] = target: Proto-oncogene tyrosine-protein kinase Src (Homo sapiens) (UniProt P12931); assay: Inhibition of recombinant human Src (1 to 530 residues) at 1 uM using GGEEEEYFELVKKKK as substrate after 40 mins in presence of [gamma-33P]ATP by scintillation counting method
# [20] = target: Tau-tubulin kinase 1 (Homo sapiens) (UniProt Q5TCY1); assay: Inhibition of recombinant human TTBK1 (1 to 479 residues) at 1 uM using casein as substrate after 40 mins in presence of [gamma-33P]ATP by scintillation counting method
# [21] = target: Casein kinase I isoform delta (Homo sapiens) (UniProt P48730); assay: Inhibition of recombinant human CK1delta (1 to 294 residues) at 1 uM using KRRRALS(p)VASLPGL as substrate after 40 mins in presence of [gamma-33P]ATP by scintillation counting method
# [22] = target: eIF-2-alpha kinase GCN2 (Homo sapiens) (UniProt Q9P2K8); assay: Inhibition of recombinant full-length human GCN2 at 1 uM using RSRSRSRSRSRSRSR as substrate after 40 mins in presence of [gamma-33P]ATP by scintillation counting method
# [23] = target: Testis-specific serine/threonine-protein kinase 1 (Homo sapiens) (UniProt Q9BXA7); assay: Inhibition of recombinant full-length human TSSK1 at 1 uM using KKKVSRSGLYRSPSMPENLNRPR as substrate after 40 mins in presence of [gamma-33P]ATP by scintillation counting method
# [24] = target: Serine/threonine-protein kinase PLK2 (Homo sapiens) (UniProt Q9NYY3); assay: Inhibition of recombinant human Snk (65 to 409 residues) at 1 uM using casein as substrate after 40 mins in presence of [gamma-33P]ATP by scintillation counting method
# Chain of Proto-oncogene tyrosine-protein kinase Src (Homo sapiens) (P12931 2-536 limits assumed): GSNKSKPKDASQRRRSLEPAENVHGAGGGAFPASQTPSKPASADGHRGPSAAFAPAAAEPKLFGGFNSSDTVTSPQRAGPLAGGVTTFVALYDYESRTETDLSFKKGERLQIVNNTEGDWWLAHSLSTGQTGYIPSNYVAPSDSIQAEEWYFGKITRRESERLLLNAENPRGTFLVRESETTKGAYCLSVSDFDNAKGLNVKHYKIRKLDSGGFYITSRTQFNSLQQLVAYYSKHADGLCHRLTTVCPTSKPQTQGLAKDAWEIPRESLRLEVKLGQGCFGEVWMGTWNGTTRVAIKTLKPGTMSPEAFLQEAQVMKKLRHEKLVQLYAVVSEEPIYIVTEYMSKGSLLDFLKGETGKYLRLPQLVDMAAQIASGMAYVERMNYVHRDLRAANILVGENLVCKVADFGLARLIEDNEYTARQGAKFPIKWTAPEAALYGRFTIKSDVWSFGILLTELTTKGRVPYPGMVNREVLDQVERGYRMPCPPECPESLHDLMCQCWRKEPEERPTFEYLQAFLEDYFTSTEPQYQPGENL
# Chain of Serine/threonine-protein kinase 17A (Homo sapiens) (Q9UEE5 whole entry): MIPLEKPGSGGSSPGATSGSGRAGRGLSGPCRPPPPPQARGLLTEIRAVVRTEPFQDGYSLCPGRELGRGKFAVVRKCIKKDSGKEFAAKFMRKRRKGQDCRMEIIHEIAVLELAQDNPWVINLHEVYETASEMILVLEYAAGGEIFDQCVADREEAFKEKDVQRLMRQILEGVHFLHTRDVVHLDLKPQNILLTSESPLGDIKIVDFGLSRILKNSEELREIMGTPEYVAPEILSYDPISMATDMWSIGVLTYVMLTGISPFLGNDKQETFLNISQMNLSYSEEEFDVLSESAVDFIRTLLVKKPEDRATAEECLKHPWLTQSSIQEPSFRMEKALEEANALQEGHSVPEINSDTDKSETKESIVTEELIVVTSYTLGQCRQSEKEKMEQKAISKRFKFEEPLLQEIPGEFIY
# Chain of Testis-specific serine/threonine-protein kinase 1 (Homo sapiens) (Q9BXA7 whole entry, the tested form may be a part): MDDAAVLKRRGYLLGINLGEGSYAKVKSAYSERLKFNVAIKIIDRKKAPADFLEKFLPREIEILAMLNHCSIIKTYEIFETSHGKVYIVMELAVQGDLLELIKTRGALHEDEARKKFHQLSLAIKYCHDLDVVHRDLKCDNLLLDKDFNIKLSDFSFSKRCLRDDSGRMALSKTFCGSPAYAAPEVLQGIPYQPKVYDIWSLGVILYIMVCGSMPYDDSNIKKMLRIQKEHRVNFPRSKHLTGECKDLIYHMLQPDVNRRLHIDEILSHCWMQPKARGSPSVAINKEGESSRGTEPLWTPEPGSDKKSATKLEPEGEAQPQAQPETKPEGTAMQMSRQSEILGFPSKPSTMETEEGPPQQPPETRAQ
# Chain of Serine/threonine-protein kinase tousled-like 1 (Homo sapiens) (Q9UKI8 whole entry): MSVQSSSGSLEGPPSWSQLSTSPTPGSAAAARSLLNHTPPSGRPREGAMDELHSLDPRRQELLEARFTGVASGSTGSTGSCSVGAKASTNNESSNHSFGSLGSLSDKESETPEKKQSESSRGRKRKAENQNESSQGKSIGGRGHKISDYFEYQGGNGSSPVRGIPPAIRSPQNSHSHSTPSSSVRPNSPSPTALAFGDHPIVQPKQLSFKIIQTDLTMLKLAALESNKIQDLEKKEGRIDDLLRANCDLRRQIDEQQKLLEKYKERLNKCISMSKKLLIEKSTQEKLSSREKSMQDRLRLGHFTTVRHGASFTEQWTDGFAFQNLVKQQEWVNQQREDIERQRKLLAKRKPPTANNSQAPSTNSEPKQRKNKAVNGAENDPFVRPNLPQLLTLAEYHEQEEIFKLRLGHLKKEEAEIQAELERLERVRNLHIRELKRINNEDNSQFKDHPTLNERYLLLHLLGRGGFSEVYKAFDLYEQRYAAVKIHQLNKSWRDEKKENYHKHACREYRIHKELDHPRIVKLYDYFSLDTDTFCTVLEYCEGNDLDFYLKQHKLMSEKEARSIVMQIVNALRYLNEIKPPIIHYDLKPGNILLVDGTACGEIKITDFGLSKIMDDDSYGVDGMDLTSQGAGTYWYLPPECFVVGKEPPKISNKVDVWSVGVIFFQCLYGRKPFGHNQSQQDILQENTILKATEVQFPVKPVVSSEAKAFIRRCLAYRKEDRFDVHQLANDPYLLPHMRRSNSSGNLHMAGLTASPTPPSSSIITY
# Chain of Serine/threonine-protein kinase DCLK3 (Homo sapiens) (Q9C098 whole entry): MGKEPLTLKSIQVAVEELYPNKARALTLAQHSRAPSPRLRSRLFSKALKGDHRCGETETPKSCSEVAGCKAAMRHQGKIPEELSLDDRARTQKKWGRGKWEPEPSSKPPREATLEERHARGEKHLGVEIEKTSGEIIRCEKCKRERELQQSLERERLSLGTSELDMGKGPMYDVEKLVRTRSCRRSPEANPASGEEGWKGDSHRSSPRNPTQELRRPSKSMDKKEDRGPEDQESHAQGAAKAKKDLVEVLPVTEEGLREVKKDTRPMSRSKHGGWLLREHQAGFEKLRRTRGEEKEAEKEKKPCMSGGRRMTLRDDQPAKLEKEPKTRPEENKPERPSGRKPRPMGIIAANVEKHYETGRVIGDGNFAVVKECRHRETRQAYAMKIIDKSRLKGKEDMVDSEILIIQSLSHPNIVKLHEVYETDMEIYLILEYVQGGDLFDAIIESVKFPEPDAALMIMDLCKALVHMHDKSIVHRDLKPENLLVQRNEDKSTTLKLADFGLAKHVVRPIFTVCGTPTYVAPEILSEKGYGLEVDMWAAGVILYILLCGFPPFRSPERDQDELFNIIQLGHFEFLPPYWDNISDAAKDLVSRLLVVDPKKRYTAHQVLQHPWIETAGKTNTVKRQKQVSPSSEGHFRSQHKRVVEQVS
# Chain of Tyrosine-protein kinase Lyn (Homo sapiens) (P07948 2-512 limits assumed): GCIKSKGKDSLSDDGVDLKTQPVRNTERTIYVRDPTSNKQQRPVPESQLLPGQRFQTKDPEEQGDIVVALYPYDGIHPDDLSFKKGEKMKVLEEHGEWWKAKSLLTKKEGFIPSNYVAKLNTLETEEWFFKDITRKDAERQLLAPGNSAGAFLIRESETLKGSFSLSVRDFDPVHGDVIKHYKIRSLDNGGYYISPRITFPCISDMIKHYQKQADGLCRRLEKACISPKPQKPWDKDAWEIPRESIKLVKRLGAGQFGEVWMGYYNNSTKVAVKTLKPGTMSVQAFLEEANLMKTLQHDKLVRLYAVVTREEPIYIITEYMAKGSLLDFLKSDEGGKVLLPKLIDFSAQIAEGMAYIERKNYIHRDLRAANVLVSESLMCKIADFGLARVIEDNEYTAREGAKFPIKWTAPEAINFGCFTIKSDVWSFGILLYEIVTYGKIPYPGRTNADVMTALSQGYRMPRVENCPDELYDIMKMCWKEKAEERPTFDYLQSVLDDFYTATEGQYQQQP
# Chain of Serine/threonine-protein kinase MARK2 (Homo sapiens) (Q7KZI7 whole entry): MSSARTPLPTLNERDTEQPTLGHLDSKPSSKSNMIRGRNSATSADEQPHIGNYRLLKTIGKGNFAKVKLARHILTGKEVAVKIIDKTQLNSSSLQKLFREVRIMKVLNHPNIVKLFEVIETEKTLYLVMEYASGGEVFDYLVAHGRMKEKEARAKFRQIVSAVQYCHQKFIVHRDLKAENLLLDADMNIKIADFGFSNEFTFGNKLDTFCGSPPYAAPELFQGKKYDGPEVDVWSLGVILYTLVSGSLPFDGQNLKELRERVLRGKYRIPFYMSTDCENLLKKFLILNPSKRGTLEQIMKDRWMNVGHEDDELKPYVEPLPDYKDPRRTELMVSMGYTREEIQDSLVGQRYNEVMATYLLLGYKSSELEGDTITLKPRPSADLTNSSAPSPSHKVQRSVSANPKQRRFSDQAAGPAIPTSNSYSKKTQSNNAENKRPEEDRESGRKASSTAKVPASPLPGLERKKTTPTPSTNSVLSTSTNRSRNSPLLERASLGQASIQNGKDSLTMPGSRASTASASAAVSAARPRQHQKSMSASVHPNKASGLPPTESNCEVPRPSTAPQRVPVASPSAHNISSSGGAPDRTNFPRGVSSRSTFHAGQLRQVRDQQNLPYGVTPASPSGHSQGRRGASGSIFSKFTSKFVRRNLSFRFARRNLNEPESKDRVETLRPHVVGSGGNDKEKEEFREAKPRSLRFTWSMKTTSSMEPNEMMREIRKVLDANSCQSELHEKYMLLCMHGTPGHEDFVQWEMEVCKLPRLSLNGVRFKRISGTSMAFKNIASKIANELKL
# Chain of Mast/stem cell growth factor receptor Kit (Homo sapiens) (P10721 whole entry): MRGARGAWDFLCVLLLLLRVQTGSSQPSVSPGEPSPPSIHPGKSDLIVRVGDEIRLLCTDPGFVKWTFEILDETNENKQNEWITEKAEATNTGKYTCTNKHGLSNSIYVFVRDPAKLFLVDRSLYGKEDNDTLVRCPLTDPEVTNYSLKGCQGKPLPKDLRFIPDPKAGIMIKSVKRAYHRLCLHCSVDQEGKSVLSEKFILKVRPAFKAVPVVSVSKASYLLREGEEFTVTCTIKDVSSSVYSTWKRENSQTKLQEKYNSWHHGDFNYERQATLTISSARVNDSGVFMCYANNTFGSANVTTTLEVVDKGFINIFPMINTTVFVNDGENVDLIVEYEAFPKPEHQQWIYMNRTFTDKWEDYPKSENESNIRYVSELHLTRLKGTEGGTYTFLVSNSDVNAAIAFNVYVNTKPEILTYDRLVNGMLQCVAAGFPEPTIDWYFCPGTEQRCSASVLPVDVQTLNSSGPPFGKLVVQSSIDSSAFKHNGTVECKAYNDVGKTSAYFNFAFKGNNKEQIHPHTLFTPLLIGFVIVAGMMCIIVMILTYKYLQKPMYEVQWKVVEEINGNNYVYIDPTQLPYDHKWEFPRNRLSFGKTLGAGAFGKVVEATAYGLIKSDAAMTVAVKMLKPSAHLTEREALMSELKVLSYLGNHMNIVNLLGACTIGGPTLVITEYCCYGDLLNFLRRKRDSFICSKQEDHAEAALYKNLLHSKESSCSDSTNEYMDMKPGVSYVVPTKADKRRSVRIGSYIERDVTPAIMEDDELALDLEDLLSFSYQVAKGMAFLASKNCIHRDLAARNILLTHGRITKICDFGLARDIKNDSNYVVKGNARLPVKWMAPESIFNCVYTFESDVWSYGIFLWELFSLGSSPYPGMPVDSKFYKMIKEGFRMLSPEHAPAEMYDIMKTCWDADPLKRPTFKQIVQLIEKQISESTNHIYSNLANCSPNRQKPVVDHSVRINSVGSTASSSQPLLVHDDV
structure (smiles),measurement,setting,value
CS(=O)(=O)c1ccc(-n2nc(-c3cnc4[nH]ccc4c3)c3c(N)ncnc32)cc1,inhibition,[1],4%
same,inhibition,[2],-1%
same,inhibition,[3],52%
same,inhibition,[4],-4%
same,inhibition,[5],7%
same,inhibition,[6],-8%
same,inhibition,[7],6%
same,inhibition,[8],59%
same,inhibition,[9],20%
same,inhibition,[10],5%
same,inhibition,[11],11%
same,inhibition,[12],1%
same,inhibition,[13],-1%
same,inhibition,[14],31%
same,inhibition,[15],53%
same,inhibition,[16],3%
same,inhibition,[17],40%
same,inhibition,[18],45%
same,inhibition,[19],64%
same,inhibition,[20],11%
same,inhibition,[21],66%
same,inhibition,[22],2%
same,inhibition,[23],-8%
same,inhibition,[24],-6%

# Source: ChEMBL document CHEMBL4190187, “Discovery of pyrazolopyrimidine derivatives as novel inhibitors of ataxia telangiectasia and rad3 related protein (ATR)” (Bioorg Med Chem Lett, 2017)
